Where “and” joins values, the source holds several entries; their conditions need not be identical. Equal values may be shown once.
Experiments:
[1] = test system: SARS-CoV-2, isolate USA-WA1/2020; experiment: microbe, parasite or virus in culture; assay type: cell-based; conditions: HeLa-ACE2 SARS-CoV-2 antiviral effect without P-gp inhibitor; for EC50: read-out: ec50; for EC90: read-out: ec90
[2] = Hepatic microsomal stability, MLM; assay type: in vitro ADME; conditions: In vitro mouse liver microsomal stability; for perc_remaining_no_cofactor: no cofactor
[3] = In vitro human hepatocyte stability; assay type: in vitro ADME
From the text: (§1) Supplement media-1.zip/Hepatocyte_Stability.csv, table | column: clint; t_half

[4] = In vitro dog hepatocyte stability; assay type: in vitro ADME
From the text: as §1

Protein binding = assay type: in vitro ADME
From the text: Supplement media-1.zip/Protein_Binding.csv, table | column: fu; perc_bound; perc_free; perc_recovered

A2A (h) = target: T1, A2A (h) (Homo sapiens, UniProt P29274); experiment: In vitro CEREP profiling, A2A (h) (agonist radioligand); assay type: binding; conditions: test compound 10 uM
T1 construct: purchased Eurofins Cerep (SafetyScreen44), recognised from the panel format
T1 sequence (P29274 whole entry): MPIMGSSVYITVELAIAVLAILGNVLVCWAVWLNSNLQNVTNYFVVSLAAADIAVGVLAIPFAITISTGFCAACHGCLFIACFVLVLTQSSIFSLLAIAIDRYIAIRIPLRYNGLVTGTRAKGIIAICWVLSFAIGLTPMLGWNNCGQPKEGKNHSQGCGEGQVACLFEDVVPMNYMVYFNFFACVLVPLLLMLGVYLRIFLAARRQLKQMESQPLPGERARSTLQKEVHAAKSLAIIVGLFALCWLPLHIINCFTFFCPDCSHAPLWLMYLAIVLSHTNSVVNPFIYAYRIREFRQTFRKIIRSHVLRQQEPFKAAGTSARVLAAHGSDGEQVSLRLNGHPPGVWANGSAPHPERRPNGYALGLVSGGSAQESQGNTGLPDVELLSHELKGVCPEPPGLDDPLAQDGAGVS
From the text: (§2) Supplement media-1.zip/Safety_Panel_Profile.csv, table | column: perc_inhibition

5-HT2B (h) = target: T2, 5-HT2B (h) (Homo sapiens, UniProt P41595); experiment: In vitro CEREP profiling, 5-HT2B (h) (agonist radioligand); assay type: binding; conditions: test compound concentration 10 uM
T2 construct: purchased Eurofins Cerep (SafetyScreen44), recognised from the panel format
T2 sequence (P41595 whole entry): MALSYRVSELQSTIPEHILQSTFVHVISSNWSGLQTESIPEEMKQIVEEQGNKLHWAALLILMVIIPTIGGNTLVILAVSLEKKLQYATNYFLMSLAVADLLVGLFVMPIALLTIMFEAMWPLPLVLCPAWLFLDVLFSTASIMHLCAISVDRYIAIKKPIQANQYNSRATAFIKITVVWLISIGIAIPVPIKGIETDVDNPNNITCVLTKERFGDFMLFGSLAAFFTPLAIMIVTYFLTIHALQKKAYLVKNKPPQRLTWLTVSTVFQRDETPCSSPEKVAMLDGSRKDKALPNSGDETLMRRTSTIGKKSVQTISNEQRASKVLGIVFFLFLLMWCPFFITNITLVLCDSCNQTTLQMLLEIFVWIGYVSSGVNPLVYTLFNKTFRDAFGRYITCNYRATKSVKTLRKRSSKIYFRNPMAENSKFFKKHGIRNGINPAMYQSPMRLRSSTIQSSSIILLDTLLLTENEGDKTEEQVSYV
From the text: as §2

GR (h) = target: T3, GR (h) (Homo sapiens, UniProt P04150); experiment: In vitro CEREP profiling, GR (h) (agonist radioligand); assay type: binding; conditions: test compound concentration 10 uM
T3 construct: purchased Eurofins Cerep (SafetyScreen44), recognised from the panel format
T3 sequence (P04150 1-777): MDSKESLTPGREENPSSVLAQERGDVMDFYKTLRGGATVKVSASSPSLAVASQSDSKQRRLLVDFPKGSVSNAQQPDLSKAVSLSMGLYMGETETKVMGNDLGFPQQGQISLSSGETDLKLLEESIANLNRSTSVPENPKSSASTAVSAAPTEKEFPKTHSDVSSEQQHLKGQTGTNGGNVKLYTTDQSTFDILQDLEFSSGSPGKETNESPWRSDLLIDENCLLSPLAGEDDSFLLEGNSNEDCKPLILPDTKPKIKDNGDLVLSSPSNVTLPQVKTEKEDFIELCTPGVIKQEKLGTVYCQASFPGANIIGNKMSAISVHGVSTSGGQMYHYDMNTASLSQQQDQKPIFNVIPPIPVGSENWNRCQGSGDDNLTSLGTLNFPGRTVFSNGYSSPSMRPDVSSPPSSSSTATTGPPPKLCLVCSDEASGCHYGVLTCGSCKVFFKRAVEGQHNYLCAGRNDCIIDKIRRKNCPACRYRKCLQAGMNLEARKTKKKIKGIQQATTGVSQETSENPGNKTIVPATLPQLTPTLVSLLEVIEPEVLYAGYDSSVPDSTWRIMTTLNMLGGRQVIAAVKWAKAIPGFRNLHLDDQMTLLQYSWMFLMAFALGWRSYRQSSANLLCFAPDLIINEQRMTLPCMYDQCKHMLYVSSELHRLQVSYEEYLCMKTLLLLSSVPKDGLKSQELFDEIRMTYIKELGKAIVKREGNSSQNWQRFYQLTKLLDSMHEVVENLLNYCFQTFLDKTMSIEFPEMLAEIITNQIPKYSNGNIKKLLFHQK
From the text: as §2

PDE4D2 (h) = target: T4, PDE4D2 (h) (Homo sapiens, UniProt Q08499); experiment: In vitro CEREP profiling, PDE4D2 (h); assay type: biochemical; conditions: test compound concentration 10 uM; Enzyme and Cell-based assays
T4 construct: purchased Eurofins Cerep (SafetyScreen44), recognised from the panel format
T4 sequence (Q08499 303-809): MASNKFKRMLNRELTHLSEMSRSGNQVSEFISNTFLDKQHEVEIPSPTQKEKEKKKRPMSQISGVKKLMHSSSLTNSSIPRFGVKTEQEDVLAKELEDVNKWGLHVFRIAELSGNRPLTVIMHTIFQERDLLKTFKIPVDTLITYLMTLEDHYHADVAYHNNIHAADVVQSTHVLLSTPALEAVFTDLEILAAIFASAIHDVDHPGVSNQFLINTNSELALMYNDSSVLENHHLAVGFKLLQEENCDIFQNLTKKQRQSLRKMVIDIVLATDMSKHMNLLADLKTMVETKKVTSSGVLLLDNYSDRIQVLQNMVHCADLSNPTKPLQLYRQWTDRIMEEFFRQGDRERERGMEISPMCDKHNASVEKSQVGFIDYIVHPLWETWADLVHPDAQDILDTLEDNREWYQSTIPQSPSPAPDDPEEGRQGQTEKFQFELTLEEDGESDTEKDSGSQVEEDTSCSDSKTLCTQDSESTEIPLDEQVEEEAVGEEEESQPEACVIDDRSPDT
From the text: as §2

BZD (central) = experiment: In vitro CEREP profiling, BZD (central) (agonist radioligand); assay type: binding; conditions: test compound 10 uM
From the text: as §2

CB1 (h) = target: T5, CB1 (h) (Homo sapiens, UniProt P21554); experiment: In vitro CEREP profiling, CB1 (h) (agonist radioligand); assay type: binding; conditions: test compound 10 uM
T5 construct: purchased Eurofins Cerep (SafetyScreen44), recognised from the panel format
T5 sequence (P21554 whole entry): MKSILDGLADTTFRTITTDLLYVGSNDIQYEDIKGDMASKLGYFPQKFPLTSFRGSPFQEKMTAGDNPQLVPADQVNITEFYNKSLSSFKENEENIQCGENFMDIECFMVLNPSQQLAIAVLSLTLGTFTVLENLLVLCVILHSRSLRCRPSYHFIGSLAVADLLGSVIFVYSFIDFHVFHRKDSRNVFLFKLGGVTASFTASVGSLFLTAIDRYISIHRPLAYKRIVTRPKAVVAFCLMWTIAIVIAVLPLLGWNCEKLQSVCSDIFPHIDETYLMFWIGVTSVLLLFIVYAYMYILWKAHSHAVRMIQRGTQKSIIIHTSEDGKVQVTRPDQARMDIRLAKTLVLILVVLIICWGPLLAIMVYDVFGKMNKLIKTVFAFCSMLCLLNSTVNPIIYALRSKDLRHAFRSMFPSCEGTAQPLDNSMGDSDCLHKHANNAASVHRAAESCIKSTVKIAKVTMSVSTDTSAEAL
From the text: as §2

[5] = In vitro rat SD liver microsomal stability; assay type: in vitro ADME
From the text: (§3) Supplement media-1.zip/Hepatic_Microsomal_Stability.csv, table | column: clint; t_half

D1 (h) = target: T6, D1 (h) (Homo sapiens, UniProt P21728); experiment: In vitro CEREP profiling, D1 (h) (antagonist radioligand); assay type: binding; conditions: test compound 10 uM
T6 construct: purchased Eurofins Cerep (SafetyScreen44), recognised from the panel format
T6 sequence (P21728 whole entry): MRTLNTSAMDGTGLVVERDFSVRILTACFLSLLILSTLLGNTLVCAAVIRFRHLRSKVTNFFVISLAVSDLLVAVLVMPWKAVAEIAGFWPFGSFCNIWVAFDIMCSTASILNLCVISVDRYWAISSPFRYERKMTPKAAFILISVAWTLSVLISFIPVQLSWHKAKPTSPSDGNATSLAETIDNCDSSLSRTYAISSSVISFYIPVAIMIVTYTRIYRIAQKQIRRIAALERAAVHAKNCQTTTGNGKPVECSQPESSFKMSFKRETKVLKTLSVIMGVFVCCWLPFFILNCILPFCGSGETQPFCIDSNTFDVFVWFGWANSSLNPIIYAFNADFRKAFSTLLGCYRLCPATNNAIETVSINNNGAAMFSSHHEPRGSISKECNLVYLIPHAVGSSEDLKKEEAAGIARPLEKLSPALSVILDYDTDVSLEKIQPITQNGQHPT
From the text: as §2

KV channel = experiment: In vitro CEREP profiling, KV channel (antagonist radioligand); assay type: binding; conditions: test compound concentration 10 uM
From the text: as §2

Na+ channel (site 2) = experiment: In vitro CEREP profiling, Na+ channel (site 2) (antagonist radioligand); assay type: binding; conditions: test compound concentration 10 uM
From the text: as §2

[6] = target: T7, norepinephrine transporter (h) (Homo sapiens, UniProt P23975); experiment: In vitro CEREP profiling, norepinephrine transporter (h) (antagonist radioligand); assay type: binding; conditions: test compound concentration 10 uM
T7 construct: purchased Eurofins Cerep (SafetyScreen44), recognised from the panel format
T7 sequence (P23975 whole entry): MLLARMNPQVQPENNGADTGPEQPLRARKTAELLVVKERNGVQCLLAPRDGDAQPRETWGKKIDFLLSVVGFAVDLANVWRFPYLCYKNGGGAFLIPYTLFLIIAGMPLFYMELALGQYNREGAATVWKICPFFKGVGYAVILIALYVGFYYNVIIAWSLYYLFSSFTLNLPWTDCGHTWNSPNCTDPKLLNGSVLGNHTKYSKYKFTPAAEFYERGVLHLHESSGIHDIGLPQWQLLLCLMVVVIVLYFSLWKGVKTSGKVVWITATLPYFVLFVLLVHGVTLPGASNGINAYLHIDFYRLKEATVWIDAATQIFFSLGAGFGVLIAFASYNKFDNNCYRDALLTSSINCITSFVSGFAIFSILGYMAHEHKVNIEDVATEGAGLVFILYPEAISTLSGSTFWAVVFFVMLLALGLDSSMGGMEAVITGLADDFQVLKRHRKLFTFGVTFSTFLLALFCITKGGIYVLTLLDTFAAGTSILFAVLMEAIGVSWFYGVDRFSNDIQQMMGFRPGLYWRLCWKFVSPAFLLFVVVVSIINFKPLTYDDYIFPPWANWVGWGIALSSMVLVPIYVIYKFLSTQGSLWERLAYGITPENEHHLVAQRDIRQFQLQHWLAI
From the text: as §2

NMDA = experiment: In vitro CEREP profiling, NMDA (antagonist radioligand); assay type: binding
From the text: as §2

[7] = In vitro dog liver microsomal stability; assay type: in vitro ADME
From the text: as §3

MERS-CoV = experiment: microbe, parasite or virus in culture; assay type: cell-based; conditions: Vero E6/TMPRSS2 MERS-CoV antiviral effect with P-gp inhibitor; for perc_max_measured: maximum measured response of dose series; for perc_min_measured: minimum measured response of dose series; for EC50: read-out: ec50; for EC90: read-out: ec90
in vitro = conditions: human, hela-ace2 cells, 50.0
[8] = maximum measured response of dose series
[9] = minimum measured response of dose series
[10] = In vitro dog plasma protein binding
[11] = In vitro fetal calf serum protein binding
[12] = In vitro human plasma protein binding
[13] = In vitro mouse plasma protein binding
[14] = In vitro rat plasma protein binding

In the case of CNCc1cc(-c2cc3c(N[C@@H](c4ccc5c(c4)S(=O)(=O)CCC5)C(C)C)ncnc3[nH]2)co1 [ASAP-0011176], the perc_max_measured ([1]; maximum measured response) is reported as 134.366%, the perc_max_measured [1, 8] is reported as 113.346% and the perc_min_measured ([1]; minimum measured response) is reported as 28.123%. The perc_min_measured [1, 9] was 56.361%, the EC50 [1] was 11.6 µM and > 20 µM and the EC90 [1] was greater than 20 µM. For the same compound, the clint [2] was 54.0 µL/min/mg, the perc_remaining [2] was 35.0% and the t_half [2] was 30.9 min. It also gave a perc_remaining_no_cofactor [2] of 101.0%, a clint [3] of 14.2 uL/min/1E6 cells and a t_half [3] of 48.9 min. It also gave a clint [4] of 7.3 uL/min/1E6 cells, a t_half [4] of 94.9 min and a fu (Protein binding; [10]) of 0.088. For the same compound, the perc_bound (Protein binding; [10]) was 91.2%, the perc_free (Protein binding; [10]) was 8.77% and the perc_recovered (Protein binding; [10]) was 70.87%. The fu (Protein binding; [11]) was 0.08, the perc_bound (Protein binding; [11]) was 92.0% and the perc_free (Protein binding; [11]) was 8.01%. For the same compound, the perc_recovered (Protein binding; [11]) was 78.6%, the fu (Protein binding; [12]) was 0.08 and the perc_bound (Protein binding; [12]) was 92.0%. The perc_free (Protein binding; [12]) was 8.01%, the perc_recovered (Protein binding; [12]) was 78.61% and the fu (Protein binding; [13]) was 0.031. For the same compound, the perc_bound (Protein binding; [13]) was 96.9%, the perc_free (Protein binding; [13]) was 3.14% and the perc_recovered (Protein binding; [13]) was 94.01%. The fu (Protein binding; [14]) was 0.072, the perc_bound (Protein binding; [14]) was 92.8% and the perc_free (Protein binding; [14]) was 7.24%. For the same compound, the perc_recovered (Protein binding; [14]) was 95.34%, the “perc_inhibition (% inhibition of the binding of a ligand specific for each target)” value (A2A (h)) was 21% and the “perc_inhibition (% inhibition of the binding of a ligand specific for each target)” value (5-HT2B (h)) was -11%. For the same compound, the “perc_inhibition (% inhibition of the binding of a ligand specific for each target)” value (GR (h)) was 21%, the “perc_inhibition: % inhibition of control enzyme activity, PDE4D2 (h)” value (PDE4D2 (h)) was 43% and the “perc_inhibition (% inhibition of the binding of a ligand specific for each target)” value (BZD (central)) was 28%. The “perc_inhibition (% inhibition of the binding of a ligand specific for each target)” value (CB1 (h)) was 3%, the clint [5] was 21.4 µL/min/mg and the t_half [5] was 32.4 min. For the same compound, the “perc_inhibition (% inhibition of the binding of a ligand specific for each target)” value (D1 (h)) was 14%, the “perc_inhibition (% inhibition of the binding of a ligand specific for each target)” value (KV channel) was 1% and the “perc_inhibition (% inhibition of the binding of a ligand specific for each target)” value (Na+ channel (site 2)) was 19%. For the same compound, the “perc_inhibition (% inhibition of the binding of a ligand specific for each target)” value [6] was 39%, the “perc_inhibition (% inhibition of the binding of a ligand specific for each target)” value (NMDA; test compound concentration 10 uM) was -1% and the clint [7] was 20.0 µL/min/mg. The t_half [7] was 34.7 min, the perc_max_measured (MERS-CoV) was 108.298% and 134.469% and the perc_min_measured (MERS-CoV) was 91.617% and 86.125%. For the same compound, the EC50 (MERS-CoV) was greater than 5 µM, the EC90 (MERS-CoV) was greater than 5 µM and the CC50 at 24 h (in vitro) was greater than 20 µM.
C[C@H](C(=O)O)[C@@H](NC(=O)c1ncnc2[nH]ccc12)c1ccc(Br)cc1 [ASAP-0014722] showed a perc_max_measured [1, 8] of 104.611%, a perc_min_measured ([1]; minimum measured response) of 91.919% and a perc_min_measured [1, 9] of 71.809%. It also gave an EC50 [1] greater than 20 µM, an EC90 [1] greater than 20 µM and a clint [2] of 4.0 µL/min/mg. For the same compound, the perc_remaining [2] was 111.226%, the t_half [2] was 379.672 min and the perc_remaining_no_cofactor [2] was 100.245%. The clint [3] was less than 3.0 uL/min/1E6 cells, the t_half [3] was greater than 231.0 min and the clint [4] was less than 3.0 uL/min/1E6 cells. It also gave a t_half [4] greater than 231.0 min, a fu (Protein binding; [10]) of 0.039 and a perc_bound (Protein binding; [10]) of 96.1%. The perc_free (Protein binding; [10]) was 3.94%, the perc_recovered (Protein binding; [10]) was 103.6% and the fu (Protein binding; [11]) was 0.043. For the same compound, the perc_bound (Protein binding; [11]) was 95.7%, the perc_free (Protein binding; [11]) was 4.3% and the perc_recovered (Protein binding; [11]) was 106.3%. For the same compound, the fu (Protein binding; [12]) was 0.026, the perc_bound (Protein binding; [12]) was 97.4% and the perc_free (Protein binding; [12]) was 2.6%. For the same compound, the perc_recovered (Protein binding; [12]) was 99.4%, the fu (Protein binding; [13]) was 0.111 and the perc_bound (Protein binding; [13]) was 88.9%. For the same compound, the perc_free (Protein binding; [13]) was 11.1%, the perc_recovered (Protein binding; [13]) was 94.29% and the fu (Protein binding; [14]) was 0.044. For the same compound, the perc_bound (Protein binding; [14]) was 95.6%, the perc_free (Protein binding; [14]) was 4.41% and the perc_recovered (Protein binding; [14]) was 93.34%. For the same compound, the “perc_inhibition (% inhibition of the binding of a ligand specific for each target)” value (A2A (h)) was -14%, the “perc_inhibition (% inhibition of the binding of a ligand specific for each target)” value (5-HT2B (h)) was -4% and the “perc_inhibition (% inhibition of the binding of a ligand specific for each target)” value (GR (h)) was 3%. For the same compound, the “perc_inhibition: % inhibition of control enzyme activity, PDE4D2 (h)” value (PDE4D2 (h)) was 30%, the “perc_inhibition (% inhibition of the binding of a ligand specific for each target)” value (BZD (central)) was -4% and the “perc_inhibition (% inhibition of the binding of a ligand specific for each target)” value (CB1 (h)) was -11%. For the same compound, the clint [5] was less than 5.0 µL/min/mg, the t_half [5] was greater than 139.0 min and the “perc_inhibition (% inhibition of the binding of a ligand specific for each target)” value (D1 (h)) was -8%. The “perc_inhibition (% inhibition of the binding of a ligand specific for each target)” value (KV channel) was 0%, the “perc_inhibition (% inhibition of the binding of a ligand specific for each target)” value (Na+ channel (site 2)) was 6% and the “perc_inhibition (% inhibition of the binding of a ligand specific for each target)” value [6] was -6%. For the same compound, the “perc_inhibition (% inhibition of the binding of a ligand specific for each target)” value (NMDA; test compound 10 uM) was 4%, the clint [7] was less than 5.0 µL/min/mg and the t_half [7] was greater than 139.0 min. The perc_max_measured (MERS-CoV) was 106.305% and 132.117%, the perc_min_measured (MERS-CoV) was 63.318% and 92.538% and the EC50 (MERS-CoV) was greater than 5 µM. For the same compound, the EC90 (MERS-CoV) was greater than 5 µM and the CC50 at 24 h (in vitro) was greater than 20 µM.
